From US20130344053A1, “Methods of Modifying Insulin Signaling Using Biliverdin Reductase (BVR) and BVR Derived Peptides” (University of Rochester, priority 2010, published 2013) come the findings set out here.

Entries after “also recorded” stand apart in the source; their conditions may differ.

Test [1] deals with rat smooth muscle cells (PAC1). Kind of test: Glucose uptake in PAC1 cells (IGF-dependent). The class given is cell-based. Here is the method:
Glucose uptake was tested as described infra. Cells were starved in low glucose serum-depleted DMEM for 20 hours prior to transfer to PBS containing CaCl2, MgCl2. After 2 hrs myristoylated peptides were added to the medium for 2 hours. Thereafter, IGF-1 (50 ng/ml) or insulin (100 nM) was added (10 min) and glucose uptake was tested for 3 min in the presence of methyl-D-glucose,3-O-[methyl-3H]. Subsequently cells were washed 3 times in cold PBS and solubilized in NaOH (0.05 mM). Aliquots were measured for radioactivity. Non-specific binding or diffusion were tested by addition of 300 mM glucose to the cells. This value was deducted from the total counts (on the average <20%) and results were normalized for protein concentration.
(§1) FIGS. 15A-B show the effect of hBVR-based peptides on IGF-dependent glucose uptake in rat smooth muscle cells (PAC1) (FIG. 15A) and insulin-dependent glucose uptake in human epithelial kidney (HEK) cells (FIG. 15B). Cells were treated as described for FIG. 14 and glucose uptake was measured as described infra.
(§2) The therapeutic utility of various BVR peptides with regard to their ability to modify insulin and insulin growth factor (IGF) mediated cellular glucose uptake was evaluated. Human embryonic kidney cells (HEK293) or rat aortic smooth muscle cells (PAC) were starved in low glucose serum-depleted DMEM for twenty hours prior to transfer to PBS containing CaCl2, MgCl2. After two hours, myristoylated peptides were added to the medium for two additional hours. Thereafter, IGF-1 (50 ng/ml) or insulin (100 nM) was added (10 min) and glucose uptake was tested for three minutes in the presence of methyl-D-glucose,3-O-[methyl-3H]. Subsequently, cells were washed three times in cold PBS and solubilized in NaOH (0.05 mM). Aliquots were measured for radioactivity. Non-specific binding or diffusion was tested by addition of 300 mM glucose to the cells. This value was deducted from the total counts (on the average <20%) and results were normalized for protein concentration.

Test [2] deals with human epithelial kidney (HEK) cells. Kind of test: Insulin-dependent glucose uptake in HEK cells. The class given is cell-based. The following applies: myristoylated peptide 2 h, then insulin 100 nM 10 min. Here is the method:
as §1, §2

Test [3] is described as follows: Blood glucose levels after tail vein injection. Format: in vivo. The following applies: Sprague Dawley rats, 11 μg/g body weight, measured at 20, 40, 60, 100 min. How it is done:
FIG. 16 is a graph illustrating the blood glucose levels measured over time course following tail vein injection to Sprague Dawley rats of the KKRILHC (SEQ ID NO: 60) peptide in solution (11 μg/g body weight) or a vehicle control solution.
In an experiment designed to evaluate the ability of the C-terminal KKRILHC BVR peptide fragment (SEQ ID NO: 60) to modulate insulin signaling and blood glucose levels, Sprague Dawley rats were administered, via tail vein injection, the KKRILHC peptide (SEQ ID NO: 60) in solution (11 μg/g body weight) or a vehicle control solution. […] This increase in blood glucose levels was at 20, 40, and 60 minutes following administration, gradually decreasing over the 100 minute time course of assessment.

The target of the next test is T1, IRK (Homo sapiens, UniProt P06213).
T1 construct: the intracellular kinase domain of the insulin receptor; purchased Biomol International (Plymouth, Pa.)
Kind of test: IRK autophosphorylation in the presence of hBVR-derived peptides. The class given is biochemical. As to conditions: 20 μM myristoylated hBVR-based peptide, 45 min, purified IRK. How it is done:
FIGS. 13A-B show the effect of hBVR-derived peptides on autophosphorylation of IRK (FIG. 13A) and IRK kinase activity (FIG. 13B). Purified IRK was incubated in the absence or presence of 20 μM of the identified myristoylated hBVR-based peptides for 45 min in an assay system containing 50 mM Hepes pH 7.4, 20 mM MCl2,1 mM EGTA and 20 μM ATP labeled with 5 uCi gamma-P32-ATP. The reaction was stopped with the addition of phosphoric acid and aliquots were applied to P81 Whatman filters. Filters were extensively washed and subjected to counting in a scintillation counter. Total counts of radioactivity of each sample were corrected for non specific binding. […] Activity of IRK toward its substrate, IRS peptide, was tested in the presence of hBVR-based peptides. Experiments were conducted as in described for FIG. 13A with addition of IRS peptide as the substrate.
The effect of hBVR-derived peptides on autophosphorylation of IRK (FIG. 13A) and IRK kinase activity (FIG. 13B) was also investigated.

T1 sequence (P06213 980-1382 limits assumed): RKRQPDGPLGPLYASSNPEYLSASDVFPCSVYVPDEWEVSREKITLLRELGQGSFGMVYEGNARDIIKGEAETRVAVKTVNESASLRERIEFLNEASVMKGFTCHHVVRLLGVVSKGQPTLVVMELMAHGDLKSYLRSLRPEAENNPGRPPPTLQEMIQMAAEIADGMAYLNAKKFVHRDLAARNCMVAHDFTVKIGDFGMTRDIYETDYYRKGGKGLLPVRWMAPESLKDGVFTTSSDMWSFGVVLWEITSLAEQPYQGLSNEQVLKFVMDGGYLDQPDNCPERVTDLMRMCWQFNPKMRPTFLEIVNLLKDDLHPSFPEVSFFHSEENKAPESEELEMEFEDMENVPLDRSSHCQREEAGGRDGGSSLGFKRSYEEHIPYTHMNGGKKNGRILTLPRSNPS

Consider “KKRILHC (Biliverdin reductase derived peptide) [hBVR peptide, amino acids 275-281 of BVR]”, for which the “IGF-mediated cellular glucose uptake in PAC1 cells” value in test [1] (myristoylated peptide 2 h, then IGF-1 50 ng/ml 10 min) is recorded as “inhibit IGF-mediated cellular glucose uptake”. For the same substance, in test [2], the “insulin mediated cellular glucose uptake in HEK cells” value is “antagonizing insulin mediated cellular glucose uptake”. For the same substance, in test [3], the “blood glucose levels compared to vehicle controls” value is on record as “immediate increase in the blood glucose levels”.

“KYCCSRK (Biliverdin reductase derived peptide) [C-terminal hBVR peptide, amino acids 290-296 of BVR; mimics insulin signaling]”: in test [1] (PAC1 cells, IGF-1 50 ng/ml), the “effectiveness in enhancing cellular glucose uptake compared with IGF-1” value is listed as “as effective as IGF-1”. In addition, in test [1] (myristoylated peptide 2 h, uptake of methyl-D-glucose,3-O-[methyl-3H] for 3 min), the “cellular glucose uptake in PAC1 cells” value is reported as “enhances cellular glucose uptake in PAC1 cells in a dose-dependent manner; also recorded: increases glucose uptake in PAC1 cells in a concentration dependent manner”. The IRK autophosphorylation result with IRK is on record as “increases IRK autophosphorylation”.
